# In the OligoGym collection:
# “And” between values parts separate entries of the source, which are not always exact repeats. Identical values can stand only once. After the bases stand the sugars from the 5' end (letter, count) and the backbone: PS all phosphorothioate, else s phosphorothioate and o phosphodiester by linkage. Methylation of C is not given here. e = 2'-O-(2-methoxyethyl) (MOE); k = constrained ethyl (cEt); d = 2'-deoxy (DNA)
# Biological target: APOL1
# Conditions: ASO
Sequence,"target mRNA inhibition (A431, 2 µM)","target mRNA inhibition (A431, 0.0625 µM)","target mRNA inhibition (A431, 0.25 µM)","target mRNA inhibition (A431, 1 µM)","target mRNA inhibition (A431, 0.0156 µM)","target mRNA inhibition (A431, 0.04 µM)"
"AACGCAATGCTGACTT (sugars k2 d4 e3 k2 d5, PS)",82%,,,,,
"TTTAAACTCAGGTGAC (sugars kkddddkekekkdddd, PS)",16%,,,,,
"GAGTATTGTTTTTGTG (sugars kkkddddkekekdddd, PS)",56%,,,,,
"CCACTTGAGTCATTTG (sugars k4 d9 k3, PS)",,40%,72%,90%,,
"ACTTTATACCAGTGTC (sugars k2 d4 e3 k2 d5, PS)",91%,,,,,
"GTTCAAAAGCAGCATT (sugars kkkddddkdkdkdddd, PS)",23%,,,,,
"GTTATATTTGATCCTC (sugars kkddddekekeddddd, PS)",96%,37%,69%,64%,8%,
"GCTTTAAACTCAGGTG (sugars kkkddddkekekdddd, PS)",68%,,,,,
"TTATACCAGTGTCTTC (sugars kddddkekekeddddd, PS)",82%,,,,,
"CACATCATTGGGTTAT (sugars k4 d9 k3, PS)",,65%,84%,90%,,
"ATTCTCATGGTACAGG (sugars kkddddekekeddddd, PS)",95%,41%,71%,90%,40%,
"GAATTATGGAATTGCA (sugars kkddddkdkdkddddd, PS)",82%,,,,,
"TTGTCTTGCAAGGTTG (sugars k4 d9 k3, PS)",,55%,69%,85%,,
"GGTTATGAAATTATTG (sugars k2 d4 e3 k2 d5, PS)",61%,,,,,
"ATTCTCATGGTACAGG (sugars kekddddeekkddddd, PS)",96%,37%,76%,90%,0%,
"GAGTATTGTTTTTGTG (sugars kkddddkekekkdddd, PS)",85%,,,,,
"CGTCAATATATTCTTT (sugars kkdddddkekeddddd, PS)",87%,,,,,
"GAGTATTGTTTTTGTG (sugars kkdddddkekeddddd, PS)",96%,75%,91%,96%,33%,
"GTTATGAAATTATTGG (sugars k4 d9 k3, PS)",,58% and 42%,87% and 73%,95% and 87% and 97%,,
"CTAATTTTCTGACTGT (sugars k2 d4 e3 k2 d5, PS)",83%,,,,,
"AGTATTGCCAGCTAAG (sugars kkdddddkekeddddd, PS)",86%,,,,,
"ACGCAATGCTGACTTG (sugars kkddddekekeddddd, PS)",92%,23%,59%,80%,6%,
"CTGAAGATTGGCTCTG (sugars k2 d4 e3 k2 d5, PS)",54%,,,,,
"ATAATGGTAGGTCTAC (sugars k4 d9 k3, PS)",,42%,78%,90%,,
"ATTCTATTAGAGGGCT (sugars kkkddddkdkdkdddd, PS)",78%,,,,,

Sequence,"target mRNA inhibition (A431, 2 µM)","target mRNA inhibition (A431, 0.0625 µM)","target mRNA inhibition (A431, 0.25 µM)","target mRNA inhibition (A431, 1 µM)","target mRNA inhibition (A431, 0.0156 µM)","target mRNA inhibition (A431, 0.04 µM)"
"AGTATTGCCAGCTAAG (sugars kkddddekekeddddd, PS)",78%,,,,,
"ATATCAGATGGGTACT (sugars kkddddkekekddddd, PS)",21%,,,,,
"GTTTTGTAAGTGCAAC (sugars kddddkekekeddddd, PS)",73%,,,,,
"GTTATATTTGATCCTC (sugars kkdddddkekeddddd, PS)",97%,,,,,
"GTTCTAACTCTTGGGC (sugars k4 d9 k3, PS)",,74%,85%,92%,,
"ACGCAATGCTGACTTG (sugars kkddddkekekddddd, PS)",79%,,,,,
"TAATTCTATTAGAGGG (sugars k4 d9 k3, PS)",,17%,45%,69%,,
"CGTCAATATATTCTTT (sugars kkkddddkekekdddd, PS)",94%,55%,84%,93%,25%,
"AGCATCAAAAACCTGG (sugars k4 d9 k3, PS)",,66%,81%,89%,,
"CATTCAGAATTTCCAC (sugars kkddddekekeddddd, PS)",87%,,,,,
"GAACGCAATGCTGACT (sugars kkddddekekeddddd, PS)",95%,40%,74%,92%,19%,
"TGAAGATTGGCTCTGG (sugars k2 d4 e3 k2 d5, PS)",82%,,,,,
"TCTATTAGAGGGCTAG (sugars k2 d4 e4 k2 d4, PS)",44%,,,,,
"GGTTCAAAAGCAGCAT (sugars k2 d4 e3 k2 d5, PS)",95%,60%,86%,94%,21%,
"GGTTATGAAATTATTG (sugars kkkddddkekeddddd, PS)",88%,,,,,
"TGTATTTCTTGATGTG (sugars k3 d4 k3 e1 d5, PS)",87%,,,,,
"CTTTAAACTCAGGTGA (sugars kkdddddkekeddddd, PS)",87%,,,,,
"TGTTATATTTGATCCT (sugars kkkddddkekekdddd, PS)",59%,,,,,
"AGCTTTAAACTCAGGT (sugars kkkddddkekekdddd, PS)",64%,,,,,
"CAGATGGGTACTTCTG (sugars kkddddkekekkdddd, PS)",10%,,,,,
"TTTTGTTGCACCCTTG (sugars k4 d9 k3, PS)",,76%,87%,92%,,
"TTCTATTAGAGGGCTA (sugars kkkddddkdkdkdddd, PS)",78%,,,,,
"ACGCAATGCTGACTTG (sugars kekddddeekkddddd, PS)",91%,,,,,
"ACACATCATTGGGTTA (sugars kkkddddkekeddddd, PS)",58%,,,,,
"ATTCTCATGGTACAGG (sugars kddddkekekeddddd, PS)",51%,,,,,

Sequence,"target mRNA inhibition (A431, 2 µM)","target mRNA inhibition (A431, 0.0625 µM)","target mRNA inhibition (A431, 0.25 µM)","target mRNA inhibition (A431, 1 µM)","target mRNA inhibition (A431, 0.0156 µM)","target mRNA inhibition (A431, 0.04 µM)"
"TGTTCTAACTCTTGGG (sugars k3 d4 k3 e1 d5, PS)",89%,,,,,
"ATTCTATTAGAGGGCT (sugars kkkddddkekekdddd, PS)",37%,,,,,
"GAACATTGAAACACCA (sugars k4 d9 k3, PS)",,39%,70%,89%,,
"CGTCAATATATTCTTT (sugars k3 d4 k3 e1 d5, PS)",95%,,,96% and 95%,,
"TTCTCATGGTACAGGA (sugars k2 d4 e3 k2 d5, PS)",86%,,,,,
"CAGCATTGAGTACAAC (sugars k3 d10 k3, PS)",,38%,58%,84%,,
"CGTCAATATATTCTTT (sugars kkkddddkekeddddd, PS)",94%,72%,90%,96% and 95%,35%,53% and 50%
"CACATCATTGGGTTAT (sugars kkdddddkekeddddd, PS)",77%,,,,,
"TTATATTTGATCCTCA (sugars k2 d4 e4 k2 d4, PS)",91%,30%,61%,87%,0%,
"TTCTATTAGAGGGCTA (sugars k3 d4 k3 e1 d5, PS)",85%,,,,,
"GGAATTATGGAATTGC (sugars kkddddkdkdkddddd, PS)",89%,,,,,
"GTGTATTTCTTGATGT (sugars kkkddddkekekdddd, PS)",84%,,,,,
"ATTTCTTGATGTGGTG (sugars k4 d9 k3, PS)",,95%,99%,99%,,
"GCAATTTTATGGAACC (sugars k4 d9 k3, PS)",,,,91%,,42%
"TATTGGTTCAAAAGCA (sugars k4 d9 k3, PS)",,29%,67%,86%,,
"CACCATAGCACGAAGC (sugars k4 d9 k3, PS)",,23%,53%,72%,,
"ATTTCTTGATGTGGTG (sugars kdddddkekekddddd, PS)",96%,50%,80%,91%,22%,
"CACTTTATACCAGTGT (sugars k2 d4 e3 k2 d5, PS)",0%,,,,,
"GCTAATTTTCTGACTG (sugars kkddddkdkdkddddd, PS)",93%,40%,71%,87%,10%,
"GGCAGTTTTGTAAGTG (sugars kkddddekekeddddd, PS)",75%,,,,,
"GAAGATTGGCTCTGGC (sugars kkddddekekeddddd, PS)",64%,,,,,
"TATTTCTTGATGTGGT (sugars k2 d4 e3 k2 d5, PS)",99%,78%,94%,98%,37%,
"GTTCAAAAGCAGCATT (sugars kdddddkekekddddd, PS)",79%,,,,,
"TATTTCTTGATGTGGT (sugars kkdddddkekeddddd, PS)",99%,59%,87%,96%,10%,
"TGTTATATTTGATCCT (sugars kdddddkekekddddd, PS)",79%,,,,,
